# Measured values: US12612389B2, “Benzofuran-based N-acylhydrazone derivative and pharmaceutical composition comprising same” (KOREA RESEARCH INSTITUTE OF BIOSCIENCE AND BIOTECHNOLOGY, priority 2019, dated 2026)
# Read-outs that look alike come from different tables or passages of the source.
# Assays:
# Stability test in plasma [1] = format: in vitro ADME; design: Residue % (180 minutes elapsed), Mean: dose or concentration left out as unconfirmed; details: 37° C.
# Experimental: In order to test the stability (in vivo) of the Example compounds according to the present invention, the compounds of Examples 2, 3, 4, 8 and 15 were administered intravenously, and plasma concentrations over time were observed. In addition, procaine was used as a positive control. Plasma stability was measured three times by administering the test compound at a concentration […] to human, rat, or mouse plasma (90 μL) at 37° C. Results thereof are shown in Table below and FIGS. 3A to 3E.
# HeLa cells = experiment: Anti-proliferative activity test in HeLa cell line (MTT); format: cell-based; details: Homo sapiens, 48 h, grown for 2 days, mean of 2
# [2] = Solubility test in administration solvent; format: physicochemical; details: 2.0 mg/mL, Solvent A 20%
# Experimental: The test substances were accurately weighed and placed in a glass vial. Then, solvent A was added in an amount corresponding to 20% of the desired final solution volume, and the mixture was completely dissolved by treatment with a vortexer and sonication. Next, solvent B in an amount corresponding to 10% or 20% of the final solution volume was added and mixed well. […] Finally, the mixture was subjected to sonication for 30 seconds. The mixed solution was prepared and used immediately before administration in the experiment. • Solvent A: Dimethylacetamide produced by SigmaAldrich • Solvent B: Cremophor EL produced by SigmaAldrich • Solvent C: 20% HPbCD ((2-Hydroxypropyl)-β-cyclodextrin produced by SigmaAldrich) in deionized water
# [3] = Stability in buffer (line of the metabolic stability test); format: in vitro ADME
# Experimental: (§1) The test compounds at a concentration of […] were administered in the presence or absence of NADPH (1 mM) to liver […] (0.5 mg protein/mL) of humans, rats and mice, and metabolic stability was tested at 37° C. for 30 minutes. In addition, buspirone was used as a positive control. Results thereof are shown in Table below and FIGS. 4A to 4E.
# [4] = Metabolic stability test in liver microsomes; format: in vitro ADME; details: 0.5 mg protein/mL, 37° C.
# Experimental: as §1
# HeLa CCL2 tumor = experiment: Anticancer effect test in human cervical cancer cell (HeLa CCL2) transplantation model; format: in vivo, BALB/C female nude mouse; details: 25 mg/kg intraperitoneally, p<0.001; for tumor growth inhibition: 0-28 days, Day 28, tumor size; for reduction in tumor weight compared with solvent control: excised tumor
# Experimental: After thawing the human […] cancer cell line HeLa CCL2 that was stored frozen in liquid nitrogen, cell culture was performed. The cells were cultured for an appropriate period in a CO2 incubator (Forma, USA) at a temperature of 37° C. and a CO2 concentration of 5%.
# On the last day of culture, all cancer cells were collected and counted, and the cell concentration was adjusted to 1×10^7 cells/mL using serum free media. The cell culture solution as adjusted above was injected subcutaneously into the axillary region between the shoulder blade and the chest wall in an amount of 0.3 mL (3×10^6 cells/mouse) per BALB/C female nude mouse (5 weeks old, Nara Biotech).
# Immediately prior to administration, the compounds were dissolved in a mixture of DMAC (dimethylacetamide) 20%+Tween80 5%+20% HPbCD (2-hydroxypropyl-β-cyclodextrin) 75% at an appropriate concentration and used. The prepared substances were repeatedly administered intraperitoneally in an amount of 0.2 mL (10 mL/kg) per 20 g of a mouse according to the following administration schedule. • carrier, the compound of Example 4, the compound of Example 8, and the compound of Example 15 (25 mg/kg), 0-28 days 4.3. Confirmation of Change in Tumor Size
# After cancer cell transplantation, the tumor size of each animal subject was measured a total of 11 times in 3 directions using a vernier caliper from when the mean tumor size reached 57.0 mm^3 until Day 28, and calculated by the formula of length×width×height/2.
# In order to test the degree of toxicity upon repeated intraperitoneal administration of the Example compound to HeLa CCL2 cancer cell transplantation nude mice, general symptoms and body weight changes of the animal subjects were observed during the administration period.
# On Day 28 after drug administration, blood was collected from the mouse ophthalmic veins in 2 hours post the last administration, and the mice were killed using CO2 gas. Images of the mice were taken, and the tumor was separated and weighed on an electronic scale. After taking the images, each tumor was divided in half and fixed in liquid nitrogen and formalin, respectively. On […] after drug administration, the HeLa CCL2 tumor was excised and weighed.
# [5] = Pharmacokinetic (PK) test; format: in vivo, male ICR mice; details: for F, Mean: Oral 20 mg/kg vs intravenous 5 mg/kg, calculated using AUClast; for CL, Mean / Vd / AUC(0-inf) / AUC(0-t) / clearance / MRT inf / half-life / Cmax / Tmax: mice, n=3; for Vd / AUC(0-inf) / AUC(0-t) / clearance / MRT inf / half-life / Cmax / Tmax: male, ICR, mouse, plasma; for Vd: iv; for AUC(0-inf): read-out: AUCinf, Mean; for AUC(0-t): read-out: AUClast, Mean; for clearance: read-out: CL, Mean (converted); for MRT inf: read-out: MRTinf, Mean; for half-life: read-out: t1/2, Mean (converted)
# Experimental: Pharmacokinetic (PK) parameters of the Example compounds according to the present invention were determined using male ICR mice as follows (n=3).
# Pharmacokinetic (PK) parameters were measured by non-compartmental analysis of plasma concentration-time curves using Kinetica™ 4.4.1 (Thermo Fisher Scientific, USA). Results thereof are shown in Table below and FIGS. 5A to 5C. In Table below, “F” parameter was calculated using AUClast, “N/A” indicates the phrase not applicable, and “NC” indicates the phrase not calculated.
# Stability test in plasma [6] = format: in vitro ADME; details: Rat plasma, 37° C.; for Residue % (180 minutes elapsed), Mean: 5 mM
# Experimental: In order to test the stability (in vivo) of the Example compounds according to the present invention, the compounds of Examples 2, 3, 4, 8 and 15 were administered intravenously, and plasma concentrations over time were observed. In addition, procaine was used as a positive control. Plasma stability was measured three times by administering the test compound at a concentration of 5 mM to human, rat, or mouse plasma (90 μL) at 37° C. Results thereof are shown in Table below and FIGS. 3A to 3E.
# [7] = 5 mg/kg, Intravenous administration, 5 mg/kg, read-out: Vss, Mean
# [8] = 5 mg/kg, Intravenous administration, 5 mg/kg, read-out: Vz, Mean
# [9] = Intravenous administration, 5 mg/kg
Compound,"Residue % (180 minutes elapsed), Mean (Stability test in plasma [1]; Human plasma) [%]",half-life at 5 mM (Stability test in plasma [1]; Human plasma) [min],"Residue % (180 minutes elapsed), Mean (Stability test in plasma [1]; Mouse plasma) [%]",half-life at 5 mM (Stability test in plasma [1]; Mouse plasma) [min],IC50 (HeLa cells) [nM],Residue (%) after culturing for 30 min [3] [%],"Residue (%) after culturing for 30 min ([4]; Human, +NADPH) [%]","Residue (%) after culturing for 30 min ([4]; Human, −NADPH) [%]","Residue (%) after culturing for 30 min ([4]; Mouse, +NADPH) [%]","Residue (%) after culturing for 30 min ([4]; Mouse, −NADPH) [%]","Residue (%) after culturing for 30 min ([4]; Rat, +NADPH) [%]","Residue (%) after culturing for 30 min ([4]; Rat, −NADPH) [%]",tumor growth inhibition (HeLa CCL2 tumor) [%],reduction in tumor weight compared with solvent control (HeLa CCL2 tumor) [%],"F, Mean [5] [%]","CL, Mean ([5]; Oral administration, 20 mg/kg) [mL/min/kg]","Vd [5, 7] [L/kg]","Vd [5, 8] [L/kg]","AUC(0-inf) [5, 9] [ng·h/mL]","AUC(0-t) [5, 9] [ng·h/mL]",other results
"CCOCCn1c(Cl)c(/C=N/NC(=O)c2cc3cc(C)ccc3o2)c2ccccc21 [Example 4, (E)-N′-[(2-chloro-1-(2-ethoxyethyl)-1H-indol-3-yl]methylene}-5-methylbenzofuran-2-carbohydrazide]",49.41,> 180,60.44,> 180,180,100.93 ± 11.79,15.76 ± 0.89,77.60 ± 1.39,5.48 ± 0.04,47.95 ± 2.93,3.23 ± 0.55,69.63 ± 1.94,56.71,57.1,4.8,1152,0.98,1.88,1500,1480,"Solubility evaluation result ([2]; Solvent B 10%, Solvent C 70% (dimethylacetamide/Cremophor EL/20% HPbCD)): Soluble; clearance [5, 9]: 55.7 mL/min/kg; MRT inf [5, 9]: 17.4 min; half-life [5, 9]: 23.4 min; Cmax ([5]; Oral administration, 20 mg/kg): 431 ng/mL; Tmax ([5]; Oral administration, 20 mg/kg): 15 min; AUC(0-inf) ([5]; Oral administration, 20 mg/kg): 295 ng·h/mL; AUC(0-t) ([5]; Oral administration, 20 mg/kg): 285 ng·h/mL; MRT inf ([5]; Oral administration, 20 mg/kg): 42 min; half-life ([5]; Oral administration, 20 mg/kg): 24 min; half-life at 5 mM (Stability test in plasma [6]): > 180 min; Residue % (180 minutes elapsed), Mean (Stability test in plasma [6]): 67.11%"
"CCOCCn1c(Cl)c(/C=N/NC(=O)c2cc3cc(C)ccc3o2)c2cc(OC)ccc21 [Example 8, (E)-N′-[(2-chloro-1-(2-ethoxyethyl)-5-methoxy-1H-indol-3-yl]methylene}-5-methylbenzofuran-2-carbohydrazide]",26.05,> 180,74.16,> 180,82,98.98 ± 2.07,24.11 ± 0.46,99.18 ± 1.92,11.41 ± 2.47,89.93 ± 6.72,4.55 ± 0.94,85.58 ± 3.34,38.35,40.5,1.0,3265.3,0.5,0.85,2390,2380,"Solubility evaluation result ([2]; Solvent B 20%, Solvent C 60% (dimethylacetamide/Cremophor EL/20% HPbCD)): Soluble; clearance [5, 9]: 35 mL/min/kg; MRT inf [5, 9]: 14.4 min; half-life [5, 9]: 16.8 min; Cmax ([5]; Oral administration, 20 mg/kg): 93.9 ng/mL; Tmax ([5]; Oral administration, 20 mg/kg): 34.8 min; AUC(0-inf) ([5]; Oral administration, 20 mg/kg): 103 ng·h/mL; AUC(0-t) ([5]; Oral administration, 20 mg/kg): 96.3 ng·h/mL; MRT inf ([5]; Oral administration, 20 mg/kg): 54 min; half-life ([5]; Oral administration, 20 mg/kg): 24 min; half-life at 5 mM (Stability test in plasma [6]): > 180 min; Residue % (180 minutes elapsed), Mean (Stability test in plasma [6]): 49.25%"
